Measurements from US12570655B2, “Cysteine covalent modifiers of AKT1 and uses thereof” (Terremoto Biosciences, Inc., priority 2023, dated 2026).

Tests used:
Type in all cases: cell-based
[1] = system: LAPC4 prostate cancer cells; assay: Antiproliferative effects in LAPC4 cells (CellTiter Glo); conditions: Homo sapiens, LAPC4, 72 h, LAPC4 cells (AKT1 E17K allele), read-out: LAPC4 proliferation IC50
Method in brief: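 LAPC4 cells were cultured in IMDM with 12% FBS and 1% P/S, seeded at 1,000 cells/well and exposed to compound dilutions in DMSO. After 72 h, intracellular ATP was measured by CellTiter Glo luminescence, and IC50 values came from a log(inhibitor) vs. response Hill fit.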

AKT1 E17K = biological target: T1, AKT1 E17K (Homo sapiens, UniProt P31749, E17K); assay: Live cell AKT1 E17K target engagement by NanoBRET competitive probe displacement; conditions: HEK293 cells transfected with kinase-NanoLuciferase fusion, 2 h at 37° C.
T1 construct: expressed in transfected cells; host or cells: HEK293
T1 sequence (P31749 whole entry E17K, the tested form may be a part): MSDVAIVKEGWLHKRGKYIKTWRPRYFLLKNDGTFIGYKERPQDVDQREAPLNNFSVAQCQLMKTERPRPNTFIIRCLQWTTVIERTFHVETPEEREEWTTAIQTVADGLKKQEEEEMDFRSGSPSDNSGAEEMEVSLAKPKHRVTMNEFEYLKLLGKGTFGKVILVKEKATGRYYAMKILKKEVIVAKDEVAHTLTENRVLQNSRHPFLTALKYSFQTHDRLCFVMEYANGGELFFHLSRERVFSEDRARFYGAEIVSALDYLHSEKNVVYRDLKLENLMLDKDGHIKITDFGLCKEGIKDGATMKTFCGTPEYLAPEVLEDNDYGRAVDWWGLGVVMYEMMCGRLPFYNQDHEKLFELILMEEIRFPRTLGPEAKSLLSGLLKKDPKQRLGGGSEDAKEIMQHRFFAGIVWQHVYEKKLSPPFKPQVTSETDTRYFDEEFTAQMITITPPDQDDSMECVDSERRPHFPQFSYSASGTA
Method in brief: (§1)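 HEK293 cells transiently expressing kinase–NanoLuciferase fusions (overnight transfection) were treated with serial compound dilutions plus fluorescent ATP-competitive tracer at ~EC50 concentration for 2 h at 37 °C. BRET ratio E600/E460 measured after substrate and extracellular luciferase inhibitor addition; IC50 from log(inhibitor)–response Hill fit.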

AKT1 WT = biological target: T2, AKT1 WT (Homo sapiens, UniProt P31749); assay: Live cell AKT1 WT target engagement by NanoBRET competitive probe displacement; conditions: HEK293 cells transfected with kinase-NanoLuciferase fusion, 2 h at 37° C.
T2 construct: expressed in transfected cells; host or cells: HEK293
T2 sequence (P31749 whole entry, the tested form may be a part): as the sequence (P31749 whole entry E17K, the tested form may be a part) above, with K17E counted along it
Method in brief: as §1

AKT2 = biological target: T3, AKT2 (Homo sapiens, UniProt P31751); assay: Live cell AKT2 target engagement by NanoBRET competitive probe displacement; conditions: HEK293 cells transfected with kinase-NanoLuciferase fusion, 2 h at 37° C.
T3 construct: expressed in transfected cells; host or cells: HEK293
T3 sequence (P31751 whole entry, the tested form may be a part): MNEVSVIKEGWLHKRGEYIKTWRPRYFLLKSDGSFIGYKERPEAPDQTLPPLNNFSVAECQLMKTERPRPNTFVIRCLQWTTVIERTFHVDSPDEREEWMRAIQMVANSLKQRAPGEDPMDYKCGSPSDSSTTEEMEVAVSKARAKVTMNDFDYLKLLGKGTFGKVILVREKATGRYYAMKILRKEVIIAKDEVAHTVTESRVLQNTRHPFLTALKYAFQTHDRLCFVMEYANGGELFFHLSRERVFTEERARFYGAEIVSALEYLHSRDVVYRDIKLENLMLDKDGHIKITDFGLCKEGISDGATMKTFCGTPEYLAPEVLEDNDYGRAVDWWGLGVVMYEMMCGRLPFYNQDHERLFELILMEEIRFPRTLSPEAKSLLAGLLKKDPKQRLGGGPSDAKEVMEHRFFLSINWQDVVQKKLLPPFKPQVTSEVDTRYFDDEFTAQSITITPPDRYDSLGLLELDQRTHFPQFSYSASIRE
Method in brief: as §1

SMILES	IC50 [1]	IC50 (AKT1 E17K)	IC50 (AKT1 WT)	IC50 (AKT2)
C=CC(=O)N1CCC(N[C@H]2CCc3cc(-n4c(-c5cccnc5N)nc5ccc(N6CCC(F)CC6)nc54)ccc32)CC1 [Example 238, 1-(4-{[(1S)-5-[2-(2-aminopyridin-3-yl)-5-(4-fluoropiperidin-1-yl)imidazo[4,5-b]pyridin-3-yl]-2,3-dihydro-1H-inden-1-yl]amino}piperidin-1-yl)prop-2-en-1-one]	0.667 µM	0.0372 µM	0.679 µM	0.666 µM
C=CC(=O)N1CCC(N[C@H]2CCc3cc(-n4c(-c5cccs5)nc5ccc(-n6cccn6)nc54)ccc32)CC1 [Example 239, 1-(4-{[(1S)-5-[5-(pyrazol-1-yl)-2-(thiophen-2-yl)imidazo[4,5-b]pyridin-3-yl]-2,3-dihydro-1H-inden-1-yl]amino}piperidin-1-yl)prop-2-en-1-one]	1.03 µM	0.0432 µM	1.45 µM	0.334 µM
C=CC(=O)N1CCC(N[C@H]2CCc3cc(-n4c(-c5cccc(F)c5)nc5ccc(-n6cccn6)nc54)ccc32)CC1 [Example 240, 1-(4-{[(1S)-5-[2-(3-fluorophenyl)-5-(pyrazol-1-yl)imidazo[4,5-b]pyridin-3-yl]-2,3-dihydro-1H-inden-1-yl]amino}piperidin-1-yl)prop-2-en-1-one]	1.04 µM	0.0426 µM	2.54 µM	0.309 µM
C=CC(=O)N1CCC(N[C@H]2CCc3cc(-n4c(-c5ccccc5F)nc5ccc(-n6cccn6)nc54)ccc32)CC1 [Example 241, 1-(4-{[(1S)-5-[2-(2-fluorophenyl)-5-(pyrazol-1-yl)imidazo[4,5-b]pyridin-3-yl]-2,3-dihydro-1H-inden-1-yl]amino}piperidin-1-yl)prop-2-en-1-one]	0.0773 µM	0.00556 µM	0.205 µM	0.0188 µM
C=CC(=O)N1CCC(N[C@H]2CCc3cc(-n4c(-c5cccnc5N)nc5ccc(-n6ccc(C)n6)nc54)ccc32)CC1 [Example 243, 1-(4-{[(1S)-5-[2-(2-aminopyridin-3-yl)-5-(3-methylpyrazol-1-yl)imidazo[4,5-b]pyridin-3-yl]-2,3-dihydro-1H-inden-1-yl]amino}piperidin-1-yl)prop-2-en-1-one]	0.15 µM	0.0173 µM	0.217 µM	0.0985 µM
C=CC(=O)N1CCC(N[C@H]2CCc3cc(-n4c(-c5ccccc5)nc5ccc(C6CC6)nc54)ccc32)CC1 [Example 246, 1-(4-{[(1S)-5-{5-cyclopropyl-2-phenylimidazo[4,5-b]pyridin-3-yl}-2,3-dihydro-1H-inden-1-yl]amino}piperidin-1-yl)prop-2-en-1-one]	1.6 µM	0.0656 µM	2.51 µM	0.711 µM
C=CC(=O)N1CCC(N[C@H]2CCc3cc(-n4c(-c5ccc(F)cc5)nc5ccc(-n6cccn6)nc54)ccc32)CC1 [Example 247, 1-(4-{[(1S)-5-[2-(4-fluorophenyl)-5-(pyrazol-1-yl)imidazo[4,5-b]pyridin-3-yl]-2,3-dihydro-1H-inden-1-yl]amino}piperidin-1-yl)prop-2-en-1-one]	1.68 µM	0.113 µM	3.12 µM	0.469 µM
C=CC(=O)N1CCC(N[C@H]2CCc3cc(-n4c(-c5cccnc5F)nc5ccc(-n6cccn6)nc54)ccc32)CC1 [Example 251, 1-(4-{[(1S)-5-[2-(2-fluoropyridin-3-yl)-5-(pyrazol-1-yl)imidazo[4,5-b]pyridin-3-yl]-2,3-dihydro-1H-inden-1-yl]amino}piperidin-1-yl)prop-2-en-1-one]	2.23 µM	0.113 µM	2.16 µM	0.28 µM
C=CC(=O)N1CCC(N[C@H]2CCc3cc(-n4c(-c5cccnc5N)nc5ccc(-n6ccc(Cl)n6)nc54)ccc32)CC1 [Example 252, 1-(4-{[(1S)-5-[2-(2-aminopyridin-3-yl)-5-(3-chloropyrazol-1-yl)imidazo[4,5-b]pyridin-3-yl]-2,3-dihydro-1H-inden-1-yl]amino}piperidin-1-yl)prop-2-en-1-one]	0.09 µM	0.0104 µM	0.127 µM	0.0385 µM
C=CC(=O)N1CCC(N[C@H]2CCc3cc(-n4c(-c5cccnc5N)nc5ccc(-c6nc(C)co6)nc54)ccc32)CC1 [Example 253, 1-(4-{[(1S)-5-[2-(2-aminopyridin-3-yl)-5-(4-methyl-1,3-oxazol-2-yl)imidazo[4,5-b]pyridin-3-yl]-2,3-dihydro-1H-inden-1-yl]amino}piperidin-1-yl)prop-2-en-1-one]	0.127 µM	0.0145 µM	0.318 µM	0.0588 µM
C=CC(=O)N1CCC(N[C@H]2CCc3cc(-n4c(-c5cccnc5N)nc5ccc(-n6cc(F)cn6)nc54)ccc32)CC1 [Example 254, (S)-1-(4-((5-(2-(2-aminopyridin-3-yl)-5-(4-fluoro-1H-pyrazol-1-yl)-3H-imidazo[4,5-b]pyridin-3-yl)-2,3-dihydro-1H-inden-1-yl)amino)piperidin-1-yl)prop-2-en-1-one]	0.0933 µM	0.0109 µM	0.0897 µM	0.0368 µM
C=CC(=O)N1CCC(N[C@H]2CCc3cc(-n4c(-c5cccnc5N)nc5ccc(-c6ncc(C)o6)nc54)ccc32)CC1 [Example 255, 1-(4-{[(1S)-5-[2-(2-aminopyridin-3-yl)-5-(5-methyl-1,3-oxazol-2-yl)imidazo[4,5-b]pyridin-3-yl]-2,3-dihydro-1H-inden-1-yl]amino}piperidin-1-yl)prop-2-en-1-one]	0.214 µM	0.0332 µM	0.547 µM	0.177 µM
C=CC(=O)N1CCC(N[C@H]2CCc3cc(-n4c(-c5cccnc5N)nc5ccc(-c6nnc(C)o6)nc54)ccc32)CC1 [Example 256, (S)-1-(4-((5-(2-(2-aminopyridin-3-yl)-5-(5-methyl-1,3,4-oxadiazol-2-yl)-3H-imidazo[4,5-b]pyridin-3-yl)-2,3-dihydro-1H-inden-1-yl)amino)piperidin-1-yl)prop-2-en-1-one]	0.809 µM	0.186 µM	1.69 µM	0.394 µM
C=CC(=O)N1CCC(N[C@H]2CCc3cc(-n4c(-c5cccnc5N)nc5ccc(-c6nnc(C)s6)nc54)ccc32)CC1 [Example 257, (S)-1-(4-((5-(2-(2-aminopyridin-3-yl)-5-(5-methyl-1,3,4-thiadiazol-2-yl)-3H-imidazo[4,5-b]pyridin-3-yl)-2,3-dihydro-1H-inden-1-yl)amino)piperidin-1-yl)prop-2-en-1-one]	0.103 µM	0.0138 µM	0.432 µM	0.073 µM
C=CC(=O)N1CCC(N[C@H]2CCc3cc(-n4c(-c5cccnc5N)nc5ccc(N6CC7CCC(C6)O7)nc54)ccc32)CC1 [Example 258, 1-(4-{[(1S)-5-[2-(2-aminopyridin-3-yl)-5-{8-oxa-3-azabicyclo[3.2.1]octan-3-yl}imidazo[4,5-b]pyridin-3-yl]-2,3-dihydro-1H-inden-1-yl]amino}piperidin-1-yl)prop-2-en-1-one]	0.526 µM	0.0947 µM	1.32 µM	0.915 µM
C=CC(=O)N1CCC(N[C@H]2CCc3cc(-n4c(-c5cccnc5N)nc5ccc(N6CCN(C)CC6)nc54)ccc32)CC1 [Example 259, 1-(4-{[(1S)-5-[2-(2-aminopyridin-3-yl)-5-(4-methylpiperazin-1-yl)imidazo[4,5-b]pyridin-3-yl]-2,3-dihydro-1H-inden-1-yl]amino}piperidin-1-yl)prop-2-en-1-one]	1.52 µM	0.15 µM	3.29 µM	0.968 µM
C=CC(=O)NCc1ccccc1C(=O)N[C@H]1CCc2cc(-n3c(-c4cccnc4N)nc4ccc(-n5nccn5)nc43)ccc21 [Example 263, (S)-N-[(1S)-5-[2-(2-aminopyridin-3-yl)-5-(1,2,3-triazol-2-yl)imidazo[4,5-b]pyridin-3-yl]-2,3-dihydro-1H-inden-1-yl]-2-(prop-2-enamidomethyl)benzamide]	0.68 µM	0.0398 µM	2.94 µM	0.153 µM
C=C(F)C(=O)NCc1ccccc1C(=O)N[C@H]1CCc2cc(-n3c(-c4cccnc4N)nc4ccc(-n5cccn5)nc43)ccc21 [Example 264, N-[(1S)-5-[2-(2-aminopyridin-3-yl)-5-(pyrazol-1-yl)imidazo[4,5-b]pyridin-3-yl]-2,3-dihydro-1H-inden-1-yl]-2-[(2-fluoroprop-2-enamido)methyl]benzamide]	1.33 µM	0.0278 µM	0.937 µM	0.171 µM
C=CC(=O)N(C)Cc1ccccc1C(=O)N[C@H]1CCc2cc(-n3c(-c4cccnc4N)nc4ccc(-n5cccn5)nc43)ccc21 [Example 265, (S)-N-(5-(2-(2-aminopyridin-3-yl)-5-(1H-pyrazol-1-yl)-3H-imidazo[4,5-b]pyridin-3-yl)-2,3-dihydro-1H-inden-1-yl)-2-((N-methylacrylamido)methyl)benzamide]	0.101 µM	0.0102 µM	0.0896 µM	0.0246 µM
CC#CC(=O)NCc1ccccc1C(=O)N[C@H]1CCc2cc(-n3c(-c4cccnc4N)nc4ccc(-n5cccn5)nc43)ccc21 [Example 267, N-[(1S)-5-[2-(2-aminopyridin-3-yl)-5-(pyrazol-1-yl)imidazo[4,5-b]pyridin-3-yl]-2,3-dihydro-1H-inden-1-yl]-2-(but-2-ynamidomethyl)benzamide]	0.335 µM	0.0059 µM	0.0864 µM	0.0536 µM
